Test results: patent US20040086904A1, “Screening assay for cotranslational translocation interfering compounds” (priority 2001, published 2004)

Assays:
VCAMSP-SEAP construct = experiment: SP-SEAP assay, secretion of SEAP into the medium; format: cell-based; conditions: transiently transfected cells, increasing concentrations
Experimental: (§1) Cell Culture and Transient Transfections HEK293 cells are maintained in Dulbeccos' modified Eagle's medium (DMEM, Gibco-BRL), supplemented with 10% heat-inactivated fetal calf serum (FCS, Bio-Whittaker) and 100 Units/ml each of penicillin (BC) and streptomycin (Gibco-BRL) at 37° in a 5% humidified CO2 incubator. HUVEC cells are cultured in endothelial cell basal medium (EBM, Clonetics Corp.) supplemented with 10% FCS, 5×10^−4 M dibutyryl cAMP (Sigma), 1 μg/ml hydrocortisone (Sigma) and 10 ng/ml human EGF (Boehringer) at 37° in a 5% humidified CO2 incubator. VCAM-1 production is stimulated by incubation with 100U/ml TNF-α for ca. 8 hours. For transient transfection, HEK293 cells are seeded into 6-well or 24-well cell culture dishes at a density of 6×10^5 cells/well or 1.5×10^5 cells/well, respectively, the day prior to transfection and grown to 50-70% confluency. Cells are transfected with 2 μg or 1 μg of plasmid DNA, respectively, using the SuperFect reagent (Qiagen) according to the supplier's recommendations. Cells are incubated either without or with addition of a candidate compound, respectively, at concentrations indicated for ca. 24 to 48 hours. […]
(§2) Human placental SEAP levels in cell supernatants are determined using either a fluorescence-based assay or an assay that measures light absorbance at 405 nm accompanying hydrolysis of pNPP according to the method described (Berger et al., 1988). […] 20 μl of 120 mM pNPP in 1x SEAP buffer prewarmed to 37° is added and the change in absorbance at 37° is plotted. […] For determination of SEAP levels by a fluorescence-based assay the Atto Phos AP Fluorescent Substrate Sysem (Promega) is used according to the manufacturer's instructions.
(§3) For the establishment and as a first proof of principle of an assay (system) according to the present invention, SP-reporter gene fusion constructs are generated using the SP of compound sensitive and insensitive proteins, respectively, and the mature sequence of placental SEAP as the reporter gene (see FIG. 5). […] Finally, secretion of the reporter SEAP protein into the medium is determined. […]

[1] = system: E-SelectinSP-SEAP fusion protein; experiment: SP-SEAP assay, secretion of SEAP into the medium; format: cell-based; conditions: transiently transfected cells, increasing concentrations
Experimental: as §1, §2, §3

VCAM-1 [2] = target: T1, VCAM-1 (Homo sapiens, UniProt P19320)
T1 sequence (P19320 25-739): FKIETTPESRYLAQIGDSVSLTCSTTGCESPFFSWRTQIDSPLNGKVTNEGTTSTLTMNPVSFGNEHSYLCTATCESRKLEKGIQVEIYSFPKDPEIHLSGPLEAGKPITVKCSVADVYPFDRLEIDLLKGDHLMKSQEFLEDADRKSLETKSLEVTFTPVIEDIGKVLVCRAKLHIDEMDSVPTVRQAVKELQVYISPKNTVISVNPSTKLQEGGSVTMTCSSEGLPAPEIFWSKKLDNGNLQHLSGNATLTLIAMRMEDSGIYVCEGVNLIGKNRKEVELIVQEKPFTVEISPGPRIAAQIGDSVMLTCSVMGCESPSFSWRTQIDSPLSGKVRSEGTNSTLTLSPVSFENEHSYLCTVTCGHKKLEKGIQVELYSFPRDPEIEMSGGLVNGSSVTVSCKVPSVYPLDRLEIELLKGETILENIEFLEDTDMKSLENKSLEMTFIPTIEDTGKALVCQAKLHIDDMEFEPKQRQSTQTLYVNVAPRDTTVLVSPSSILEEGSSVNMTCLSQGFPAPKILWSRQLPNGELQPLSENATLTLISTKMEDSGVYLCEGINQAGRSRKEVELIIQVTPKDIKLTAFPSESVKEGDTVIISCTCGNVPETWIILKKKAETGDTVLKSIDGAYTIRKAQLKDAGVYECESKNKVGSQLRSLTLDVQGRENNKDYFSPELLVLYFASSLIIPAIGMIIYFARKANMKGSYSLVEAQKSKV
Experimental: Cell-free translations are carried out in the coupled TNT reticulocyte lysate system (Promega) using bacteriophage T7 polymerase according to the suppliers recommendations in a final volume of 25 μl and in the presence of [^35S]-methionine (Redivue, 10 mCi/ml, Amersham). To study cotranslational translocation across the ER membrane dog pancreatic microsomes (Promega) are present during translation reactions at concentrations between 1 to 2.5 μl per 25 μl reaction mixture. After translation/translocation, 2.5 μl of the reaction mixture are denatured in SDS loading buffer (12.5 mM Tris-HCl, pH 6.8, 80 μM EDTA, 26 mM DTT, 1% SDS, 100 g/ml bromphenol blue, 0.01% NaN3) for 5 minutes at 95° and subjected to SDS-PAGE (4-20% gradient or 15% Excel gels, Pharmacia). Gels are analyzed by autoradiography and quantitated using an Instant Phosphoimager (Packard). […]
To investigate the possibility that the candidate compound is interfering at this early stage of protein expression the effect of the drug on the process of cotranslational translocation in a cell-free assay system is analysed. […]

VCAM-1 [3] = target: T1, VCAM-1; experiment: Transient expression of VCAM-1 in HEK293 cells, Western blot / immunoblot; format: cell-based; design: expressed in transfected cells; host or cells: HEK293
Experimental: (§4) The E-Selectin and ICAM-1 expression vectors pCDM8-E-selectin and pCDM8-ICAM-1 allowing transient expression in mammalian cells and cell-free translation are obtained from R&D Systems. VCAM-1 cDNA is obtained by reverse transcription of total RNA from TNF-α stimulated primary human umbilical vein endothelial cells (HUVEC) as follows. After extraction of total RNA with Trizol (GibcoBRL) according to the suppliers recommendations, reverse transcription (RT) PCR on approximately 3 μg total HUVEC RNA is performed using the Advantage High Fidelity PCR kit (CLONTECH) under standard conditions with N- and C-terminal VCAM-1-specific sense and antisense oligonucleotide primers, respectively. Primers are tailed, introducing a Kpnl restriction site 5′ of the Kozak sequence and a Xhol site 3′ of the stop codon. Placental SEAP is amplified accordingly by PCR using plasmid pBC 12/PLAP489 (Berger et al., 1988) as a template and similar tailed SEAP-specific sense and antisense oligonuclotide primers. The SEAP and VCAM-1 cDNAs are isolated and cloned into the pCR2.1 vector (TA cloning kit, Invitrogen). […] Approximately equal molar quantities of each PCR product A and B are phosphorylated and ligated. […]
(§5) Protein expression in cells is analyzed by Western blot and subsequent immunoblot analysis. […]

[4] = target: T2, VCAM-1 mutant molecule containing the SP from E-Selectin (Homo sapiens, UniProt P19320); experiment: Chimeric fusion construct sensitivity (cell-free translation/translocation and transfected HEK293 cells); format: cell-based; conditions: cell-free translation/translocation assay and transiently transfected HEK293 cells
T2 construct: E-Selectin signal peptide (SP; SELE, P16581), replacing VCAM-1's own SP (N); expressed in transfected cells; host or cells: HEK293 (transient); also translated cell-free in reticulocyte lysate with microsomes
Experimental: (§6) The E-Selectin and ICAM-1 expression vectors pCDM8-E-selectin and pCDM8-ICAM-1 allowing transient expression in mammalian cells and cell-free translation are obtained from R&D Systems. VCAM-1 cDNA is obtained by reverse transcription of total RNA from TNF-α stimulated primary human umbilical vein endothelial cells (HUVEC) as follows. After extraction of total RNA with Trizol (GibcoBRL) according to the suppliers recommendations, reverse transcription (RT) PCR on approximately 3 μg total HUVEC RNA is performed using the Advantage High Fidelity PCR kit (CLONTECH) under standard conditions with N- and C-terminal VCAM-1-specific sense and antisense oligonucleotide primers, respectively. Primers are tailed, introducing a Kpnl restriction site 5′ of the Kozak sequence and a Xhol site 3′ of the stop codon. Placental SEAP is amplified accordingly by PCR using plasmid pBC 12/PLAP489 (Berger et al., 1988) as a template and similar tailed SEAP-specific sense and antisense oligonuclotide primers. The SEAP and VCAM-1 cDNAs are isolated and cloned into the pCR2.1 vector (TA cloning kit, Invitrogen). All sequences are confirmed by sequencing and subsequently subcloned into the mammalian expression vector pcDNA3.1 (+) (Invitrogen) as Kpnl Xhol fragments for transient expression under control of the constitutive immediate-early CMV promoter and for cell-free translation from the bacteriophage T7 promoter. To generate SP-gene fusion constructs the recombinant PCR-ligation-PCR mutagenesis method is used (Ali and Steinkasserer, 1995). Briefly, in a primary PCR reaction the two fusion gene fragments are independently amplified using appropriate specific primers for the SPs (PCR product A) and the mature sequences (PCR product B), respectively. Approximately equal molar quantities of each PCR product A and B are phosphorylated and ligated. Finally, out of the possible ligation combinations, the desired fusion gene construct is specifically amplified from an aliquot of the ligation reaction by a secondary PCR using the 5′ sense primer of the SP and the 3′ antisense primer of the mature sequence. […]

VCAMSP15+4/E-Sel = experiment: as above; format: cell-based; conditions: 15 aa of the SP plus 4 aa of the adjacent mature domain of VCAM-1
Experimental: as §6

[5] = target: T3, E-Selectin mutant molecule with SP from VCAM-1 (Homo sapiens, UniProt P16581); experiment: as above; format: cell-based; conditions: cell-free translation/translocation assay and transiently transfected HEK293 cells
T3 construct: VCAM-1 signal peptide (SP; VCAM1, P19320), replacing E-Selectin's own SP (N); expressed in transfected cells; host or cells: HEK293 (transient); also translated cell-free in reticulocyte lysate with microsomes
Experimental: as §6

E-Selectin = target: T4, E-Selectin (Homo sapiens, UniProt P16581); experiment: Transient expression of E-Selectin in HEK293 cells, Western blot / immunoblot; format: cell-based; conditions: transiently transfected HEK293 cells, 48 hours post-transfection, increasing concentrations
T4 construct: Full length cDNAs of the adhesion molecules VCAM-1, ICAM-1 and E-Selectin are transcribed and translated; host or cells: cell-free: coupled TNT reticulocyte lysate (Promega) with dog pancreatic microsomes
T4 sequence (P16581 22-610): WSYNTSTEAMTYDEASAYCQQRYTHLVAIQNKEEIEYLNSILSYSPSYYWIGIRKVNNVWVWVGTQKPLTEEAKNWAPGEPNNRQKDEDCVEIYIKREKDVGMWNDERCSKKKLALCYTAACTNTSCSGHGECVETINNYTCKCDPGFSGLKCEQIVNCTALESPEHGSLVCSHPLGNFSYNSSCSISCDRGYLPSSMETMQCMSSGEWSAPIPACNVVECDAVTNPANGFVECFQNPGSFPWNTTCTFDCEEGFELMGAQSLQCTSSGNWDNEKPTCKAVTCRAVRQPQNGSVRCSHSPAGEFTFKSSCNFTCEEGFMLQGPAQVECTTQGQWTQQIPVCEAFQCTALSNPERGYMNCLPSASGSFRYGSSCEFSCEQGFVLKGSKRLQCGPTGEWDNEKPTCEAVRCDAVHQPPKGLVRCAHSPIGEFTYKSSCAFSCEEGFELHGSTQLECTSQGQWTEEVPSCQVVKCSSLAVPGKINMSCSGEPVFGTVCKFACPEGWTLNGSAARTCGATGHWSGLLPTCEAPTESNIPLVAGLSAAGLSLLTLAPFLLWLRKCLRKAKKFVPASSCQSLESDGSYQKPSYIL
Experimental: as §4, §5

SMILES: CCCCC(C)CC1NC(=O)C(Cc2cn(OC)c3ccccc23)N(C)C(=O)C(CC(C)C)NC(=O)C(CC(C)C)N(C)C(=O)C(CC(C)CCCC)NC(=O)C(CCC(=O)OCCC)OC(=O)C(C)N(C)C1=O (stereo not drawn) [CP]
- sensitivity of SEAP secretion to the compound (VCAMSP-SEAP construct): slight sensitivity
- sensitivity of SEAP secretion to the compound [1]: compound-insensitive
- core-glycosylated and protease-protected form of VCAM-1 (translocation across microsomal membranes) (VCAM-1 [2]): inhibited by increasing concentrations
- VCAM-1 protein in transfected cells co-treated with lactacystin (VCAM-1 [3]; cells transiently transfected with VCAM-1 cDNA, co-treatment with lactacystin 5 μM, band identified as full length, non-glycosylated VCAM-1): accumulation of a polypeptide moiety of lower molecular weight
- IC50 (VCAM-1 [3]; transiently transfected HEK293 cells, 48 hours post-transfection, Western blot quantified against β-actin, read-out: concentration inhibiting 50% of VCAM-1 glycoprotein synthesis): < 5 nM
- sensitivity of the chimeric construct to the compound [4]: resistant
- sensitivity of the chimeric construct to the compound (VCAMSP15+4/E-Sel): full sensitivity
- sensitivity of the chimeric construct to the compound [5]: partially sensitive
- synthesis of E-Selectin (E-Selectin): not-affected
